The test system of assay [1] is Mycobacterium tuberculosis. As to the kind of experiment: Antimycobacterial activity against isoniazid-resistant Mycobacterium tuberculosis by two fold agar dilution method. The format is functional. (In general: Agar dilution tests growth on a series of plates holding different concentrations.)
Assay [2] deals with Mycobacterium tuberculosis. As to the kind of experiment: Ratio of MIC for isoniazid-resistant Mycobacterium tuberculosis to MIC for Mycobacterium tuberculosis H37Rv. The format is functional.

In brackets after ≈: the same amount, converted by molar mass.

The record followed here is ChEMBL document CHEMBL1938310, “Discovery of novel antitubercular 1,5-dimethyl-2-phenyl-4-([5-(arylamino)-1,3,4-oxadiazol-2-yl]methylamino)-1,2-dihydro-3H-pyrazol-3-one analogues” (Bioorg Med Chem Lett, 2012).

One may read the MIC as the lowest concentration found to suppress growth.

Consider `Cc1c(NCc2nnc(Nc3ccc(O)cc3)o2)c(=O)n(-c2ccccc2)n1C`, for which the MIC in assay [1] came out at 12.5 µg/mL (≈ 31.9 µM).

Regarding `Cc1c(Cl)cccc1Nc1nnc(CNc2c(C)n(C)n(-c3ccccc3)c2=O)o1`, in assay [1], the MIC is greater than 12.5 µg/mL.

In assay [1], `Cc1c(NCc2nnc(Nc3ccc(Cl)cc3)o2)c(=O)n(-c2ccccc2)n1C` showed an MIC of 10 µg/mL (≈ 24.3 µM).

In the case of `Cc1c(NCc2nnc(Nc3ccc(S(N)(=O)=O)cc3)o2)c(=O)n(-c2ccccc2)n1C`, in assay [1], inhibition of growth (MIC) required 12.5 µg/mL (≈ 27.4 µM).

As for `Cc1cccc(C)c1Nc1nnc(CNc2c(C)n(C)n(-c3ccccc3)c2=O)o1`, in assay [1], the MIC is greater than 12.5 µg/mL.

Take `Cc1c(NCc2nnc(Nc3ccc(F)cc3)o2)c(=O)n(-c2ccccc2)n1C`: in assay [2], the Ratio amounted to 4. This compound registered an MIC in assay [1] of 3.12 µg/mL (≈ 7.91 µM).

In assay [1], `Cc1c(NCc2nnc(Nc3ccc([N+](=O)[O-])cc3)o2)c(=O)n(-c2ccccc2)n1C` displayed an MIC of 6.25 µg/mL (≈ 14.8 µM).

In the case of `NNC(=O)c1ccncc1` [ISONIAZID], it took 12.5 µg/mL (≈ 91.1 µM) to inhibit growth in assay [1] (MIC).

`Cc1c(NCc2nnc(Nc3ccc(F)c(Cl)c3)o2)c(=O)n(-c2ccccc2)n1C` displayed an MIC in assay [1] of 10 µg/mL (≈ 23.3 µM).

`Cc1c(NCc2nnc(Nc3ccccc3Cl)o2)c(=O)n(-c2ccccc2)n1C` came in with an MIC in assay [1] greater than 12.5 µg/mL.

In assay [1], `Cc1ccc(Nc2nnc(CNc3c(C)n(C)n(-c4ccccc4)c3=O)o2)cc1` gave an MIC greater than 12.5 µg/mL.

As to `COc1ccc(Nc2nnc(CNc3c(C)n(C)n(-c4ccccc4)c3=O)o2)cc1`, the MIC in assay [1] is greater than 12.5 µg/mL.

As to `Cc1c(NCc2nnc(Nc3ccc(Br)cc3)o2)c(=O)n(-c2ccccc2)n1C`, in assay [1], it took 12.5 µg/mL (≈ 27.5 µM) to inhibit growth (MIC).

In assay [1], `Cc1ccc(Nc2nnc(CNc3c(C)n(C)n(-c4ccccc4)c3=O)o2)c(C)c1` gave an MIC greater than 12.5 µg/mL.

In assay [1], `Cc1c(NCc2nnc(Nc3ccccc3)o2)c(=O)n(-c2ccccc2)n1C` came in with an MIC greater than 12.5 µg/mL.
